Measurements published in US7786083B2, “Metastin derivatives and use thereof” (Takeda Pharmaceutical Company Limited, priority 2006, dated 2010).
*1 amine or outer side, *2 acyl side, *3 side chain or, on linkers, in order; H or OH if unused. Where a SMILES comes first, the peptide text is derived from it. [ ]: non-standard residue; d: D form. Glyψ(E-CHCH)Leu = CC(C)C[C@H](/C=C/CN[*:1])C(=O)[*:2]; Glyψ(CH2S)Leu = CC(C)C[C@H](SCCN[*:1])C(=O)[*:2]; Arg(Me) = CNC(=N)NCCC[C@H](N)C(=O)O; Dap(CONH2) = NC(=O)NC[C@H](N)C(=O)O; Ala(cPr) = N[C@@H](CC1CC1)C(=O)O; Hyp = O=C(O)[C@@H]1C[C@@H](O)CN1; tBuAla = CC(C)(C)C[C@H](N)C(=O)O; Cha = N[C@@H](CC1CCCCC1)C(=O)O; Cit = NC(=O)NCCC[C@H](N)C(=O)O; Nle = CCCC[C@H](N)C(=O)O; Nva = CCC[C@H](N)C(=O)O

system: metastin receptors; experiment: Measurement of agonist activity by assaying changes in intracellular calcium ion level (FLIPR, Fluo-4 NW); format: cell-based, human; settings: specific activity of the EC50 of a test compound based on the EC50 of Metastin (45-54), metastin receptor expression CHO cells
Summary of the method: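 CHO/dhfr⁻ cells stably expressing human or rat metastin receptor, seeded 3×10^4/well for 24 h, loaded with Fluo-4 NW 30 min at 37 °C in HBSS with 0.1% BSA, 20 mM HEPES pH 7.4 and 1 mM probenecid. Compound-stimulated intracellular calcium change read on FLIPR.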

| SMILES | Specific Activity |
| --- | --- |
| CNC(=N)NCCC[C@H](NC(=O)[C@@H](/C=C/CNC(=O)[C@H](CC1CCCCC1)NC(=O)[C@@H](NC(=O)[C@H](CCC(N)=O)NC(=O)[C@@H]1C[C@@H](O)CN1C(=O)[C@@H](Cc1ccc(O)cc1)NC(C)=O)[C@@H](C)O)CC(C)C)C(=O)N[C@@H](Cc1c[nH]c2ccccc12)C(N)=O [Compound No. 913, des(1)-Ac-[D-Tyr2,Hyp3,Gln4,Thr5,Cha6,Gly7Ψ((E)CH═CH)Leu8,Arg(Me)9,Trp10]MS10] (Ac-[dY][Hyp]QT[Cha][Glyψ(E-CHCH)Leu][Arg(Me)]W-NH2) | 1.4 |
| CNC(=N)NCCC[C@H](NC(=O)[C@@H](/C=C/CNC(=O)[C@H](CC1CCCCC1)NC(=O)[C@@H](NC(=O)[C@H](CCCNC(N)=O)NC(=O)[C@@H]1C[C@@H](O)CN1C(=O)[C@@H](Cc1ccc(O)cc1)NC(C)=O)[C@@H](C)O)CC(C)C)C(=O)N[C@@H](Cc1c[nH]c2ccccc12)C(N)=O [Compound No. 914, des(1)-Ac-[D-Tyr2,Hyp3,Cit4,Thr5,Cha6,Gly7Ψ((E)CH═CH)Leu8,Arg(Me)9,Trp10]MS10] (Ac-[dY][Hyp][Cit]T[Cha][Glyψ(E-CHCH)Leu][Arg(Me)]W-NH2) | 0.9 |
| CNC(=N)NCCC[C@H](NC(=O)[C@@H](/C=C/CNC(=O)[C@H](CC1CCCCC1)NC(=O)[C@@H](NC(=O)[C@H](CCC(=O)O)NC(=O)[C@@H]1C[C@@H](O)CN1C(=O)[C@@H](Cc1ccc(O)cc1)NC(C)=O)[C@@H](C)O)CC(C)C)C(=O)N[C@@H](Cc1c[nH]c2ccccc12)C(N)=O [Compound No. 915, des(1)-Ac-[D-Tyr2,Hyp3,Glu4,Thr5,Cha6,Gly7Ψ((E)CH═CH)Leu8,Arg(Me)9,Trp10]MS10] (Ac-[dY][Hyp]ET[Cha][Glyψ(E-CHCH)Leu][Arg(Me)]W-NH2) | 4.6 |
| CNC(=N)NCCC[C@H](NC(=O)[C@H](CC1CC1)NC(=O)CNC(=O)[C@H](Cc1ccccc1)NC(=O)[C@@H](NC(=O)[C@H](CC(N)=O)NC(=O)[C@@H]1C[C@@H](O)CN1C(=O)[C@@H](Cc1ccc(O)cc1)NC(C)=O)[C@@H](C)O)C(=O)N[C@@H](Cc1c[nH]c2ccccc12)C(N)=O [Compound No. 916, des(1)-Ac-[D-Tyr2,Hyp3,Thr5,Ala(cPr)8,Arg(Me)9,Trp10]MS10] (Ac-[dY][Hyp]NTFG[Ala(cPr)][Arg(Me)]W-NH2) | 0.8 |
| CNC(=N)NCCC[C@H](NC(=O)[C@H](COC)NC(=O)CNC(=O)[C@H](Cc1ccccc1)NC(=O)[C@@H](NC(=O)[C@H](CC(N)=O)NC(=O)[C@@H]1C[C@@H](O)CN1C(=O)[C@@H](Cc1ccc(O)cc1)NC(C)=O)[C@@H](C)O)C(=O)N[C@@H](Cc1c[nH]c2ccccc12)C(N)=O [Compound No. 917, des(1)-Ac-[D-Tyr2,Hyp3,Thr5,Ser(Me)8,Arg(Me)9,Trp10]MS10] (Ac-[dY][Hyp]NTFGS(Me)[Arg(Me)]W-NH2) | 0.8 |
| CCC[C@H](NC(=O)CNC(=O)[C@H](Cc1ccccc1)NC(=O)[C@@H](NC(=O)[C@H](CC(N)=O)NC(=O)[C@@H]1C[C@@H](O)CN1C(=O)[C@@H](Cc1ccc(O)cc1)NC(C)=O)[C@@H](C)O)C(=O)N[C@@H](CCCNC(=N)NC)C(=O)N[C@@H](Cc1c[nH]c2ccccc12)C(N)=O [Compound No. 918, des(1)-Ac-[D-Tyr2,Hyp3,Thr5,Nva8,Arg(Me)9,Trp10]MS10] (Ac-[dY][Hyp]NTFG[Nva][Arg(Me)]W-NH2) | 0.7 |
| CNC(=N)NCCC[C@H](NC(=O)[C@H](COC)NC(=O)CNC(=O)[C@H](CC1CCCCC1)NC(=O)[C@@H](NC(=O)[C@H](CC(N)=O)NC(=O)[C@@H]1C[C@@H](O)CN1C(=O)[C@@H](Cc1ccc(O)cc1)NC(C)=O)[C@@H](C)O)C(=O)N[C@@H](Cc1c[nH]c2ccccc12)C(N)=O [Compound No. 920, des(1)-Ac-[D-Tyr2,Hyp3,Thr5,Cha6,Ser(Me)8,Arg(Me)9,Trp10]MS10] (Ac-[dY][Hyp]NT[Cha]GS(Me)[Arg(Me)]W-NH2) | 0.5 |
| CCC[C@H](NC(=O)CNC(=O)[C@H](CC1CCCCC1)NC(=O)[C@@H](NC(=O)[C@H](CC(N)=O)NC(=O)[C@@H]1C[C@@H](O)CN1C(=O)[C@@H](Cc1ccc(O)cc1)NC(C)=O)[C@@H](C)O)C(=O)N[C@@H](CCCNC(=N)NC)C(=O)N[C@@H](Cc1c[nH]c2ccccc12)C(N)=O [Compound No. 921, des(1)-Ac-[D-Tyr2,Hyp3,Thr5,Cha6,Nva8,Arg(Me)9,Trp10]MS10] (Ac-[dY][Hyp]NT[Cha]G[Nva][Arg(Me)]W-NH2) | 0.5 |
| CC(=O)N[C@H](Cc1ccc(O)cc1)C(=O)N1C[C@H](O)C[C@H]1C(=O)N[C@@H](CNC(N)=O)C(=O)N[C@H](C(=O)N[C@@H](CC1CCCCC1)C(=O)NC/C=C/[C@@H](CC(C)C)C(=O)N[C@@H](CCCNC(=N)N)C(=O)N[C@@H](Cc1c[nH]c2ccccc12)C(N)=O)[C@@H](C)O [Compound No. 927, des(1)-Ac-[D-Tyr2,Hyp3,Alb4,Thr5,Cha6,Gly7Ψ((E)CH═CH)Leu8,Trp10]MS10] (Ac-[dY][Hyp][Dap(CONH2)]T[Cha][Glyψ(E-CHCH)Leu]RW-NH2) | 0.5 |
| CNC(=N)NCCC[C@H](NC(=O)[C@H](CC(C)C)SCCNC(=O)[C@H](Cc1ccccc1)NC(=O)[C@@H](NC(=O)[C@H](CC(N)=O)NC(=O)[C@@H]1C[C@@H](O)CN1C(=O)[C@@H](Cc1ccc(O)cc1)NC(C)=O)[C@@H](C)O)C(=O)N[C@@H](Cc1c[nH]c2ccccc12)C(N)=O [Compound No. 929, des(1)-Ac-[D-Tyr2,Hyp3,Thr5,Gly7Ψ(CH2S)Leu8,Arg(Me)9,Trp10]MS10] (Ac-[dY][Hyp]NTF[Glyψ(CH2S)Leu][Arg(Me)]W-NH2) | 1.2 |
| CNC(=N)NCCC[C@H](NC(=O)[C@H](CC(C)C)SCCNC(=O)[C@H](CC1CCCCC1)NC(=O)[C@@H](NC(=O)[C@H](CC(N)=O)NC(=O)[C@@H]1C[C@@H](O)CN1C(=O)[C@@H](Cc1ccc(O)cc1)NC(C)=O)[C@@H](C)O)C(=O)N[C@@H](Cc1c[nH]c2ccccc12)C(N)=O [Compound No. 931, des(1)-Ac-[D-Tyr2,Hyp3,Thr5,Cha6,Gly7Ψ(CH2S)Leu8,Arg(Me)9,Trp10]MS10] (Ac-[dY][Hyp]NT[Cha][Glyψ(CH2S)Leu][Arg(Me)]W-NH2) | 1.7 |
| CNC(=N)NCCC[C@H](NC(=O)[C@H](CC1CCCCC1)NC(=O)CNC(=O)[C@H](CC1CCCCC1)NC(=O)[C@@H](NC(=O)[C@H](CC(N)=O)NC(=O)[C@@H]1C[C@@H](O)CN1C(=O)[C@@H](Cc1ccc(O)cc1)NC(C)=O)[C@@H](C)O)C(=O)N[C@@H](Cc1c[nH]c2ccccc12)C(N)=O [Compound No. 934, des(1)-Ac-[D-Tyr2,Hyp3,Thr5,Cha6,8,Arg(Me)9,Trp10]MS10] (Ac-[dY][Hyp]NT[Cha]G[Cha][Arg(Me)]W-NH2) | 3.5 |

More lines, now with the values ahead:

| Specific Activity | SMILES |
| --- | --- |
| 0.5 | CNC(=N)NCCC[C@H](NC(=O)[C@H](COC)NC(=O)CNC(=O)[C@H](CC1CCCCC1)NC(=O)[C@@H](NC(=O)[C@H](CC(N)=O)NC(=O)[C@H](CCC(=O)O)NC(=O)[C@@H](Cc1ccc(O)cc1)NC(C)=O)[C@@H](C)O)C(=O)N[C@@H](Cc1c[nH]c2ccccc12)C(N)=O [Compound No. 923, des(1)-Ac-[D-Tyr2,Glu3,Thr5,Cha6,Ser(Me)8,Arg(Me)9,Trp10]MS10] (Ac-[dY]ENT[Cha]GS(Me)[Arg(Me)]W-NH2) |
| 0.4 | CCC[C@H](NC(=O)CNC(=O)[C@H](CC1CCCCC1)NC(=O)[C@@H](NC(=O)[C@H](CC(N)=O)NC(=O)[C@H](CCC(=O)O)NC(=O)[C@@H](Cc1ccc(O)cc1)NC(C)=O)[C@@H](C)O)C(=O)N[C@@H](CCCNC(=N)NC)C(=O)N[C@@H](Cc1c[nH]c2ccccc12)C(N)=O [Compound No. 924, des(1)-Ac-[D-Tyr2,Glu3,Thr5,Cha6,Nva8,Arg(Me)9,Trp10]MS10] (Ac-[dY]ENT[Cha]G[Nva][Arg(Me)]W-NH2) |
| 0.4 | CC(=O)N[C@H](Cc1ccc(O)cc1)C(=O)N1C[C@H](O)C[C@H]1C(=O)N[C@@H](CC(N)=O)C(=O)N[C@H](C(=O)N[C@@H](Cc1ccccc1)C(=O)NC/C=C/[C@@H](CC(C)C)C(=O)N[C@@H](CCCNC(=N)N)C(=O)N[C@@H](Cc1c[nH]c2ccccc12)C(N)=O)[C@@H](C)O [Compound No. 925, des(1)-Ac-[D-Tyr2,Hyp3,Thr5,Gly7Ψ((E)CH═CH)Leu8,Trp10]MS10] (Ac-[dY][Hyp]NTF[Glyψ(E-CHCH)Leu]RW-NH2) |
| 0.6 | CC(=O)N[C@H](Cc1ccc(O)cc1)C(=O)N1C[C@H](O)C[C@H]1C(=O)N[C@@H](CC(N)=O)C(=O)N[C@H](C(=O)N[C@@H](CC1CCCCC1)C(=O)NC/C=C/[C@@H](CC(C)C)C(=O)N[C@@H](CCCNC(=N)N)C(=O)N[C@@H](Cc1c[nH]c2ccccc12)C(N)=O)[C@@H](C)O [Compound No. 926, des(1)-Ac-[D-Tyr2,Hyp3,Thr5,Cha6,Gly7Ψ((E)CH═CH)Leu8,Trp10]MS10] (Ac-[dY][Hyp]NT[Cha][Glyψ(E-CHCH)Leu]RW-NH2) |
| 0.6 | CCCC[C@H](NC(=O)CNC(=O)[C@H](CC1CCCCC1)NC(=O)[C@@H](NC(=O)[C@H](CC(N)=O)NC(=O)[C@@H]1C[C@@H](O)CN1C(=O)[C@@H](Cc1ccc(O)cc1)NC(C)=O)[C@@H](C)O)C(=O)N[C@@H](CCCNC(=N)NC)C(=O)N[C@@H](Cc1c[nH]c2ccccc12)C(N)=O [Compound No. 932, des(1)-Ac-[D-Tyr2,Hyp3,Thr5,Cha6,Nle8,Arg(Me)9,Trp10]MS10] (Ac-[dY][Hyp]NT[Cha]G[Nle][Arg(Me)]W-NH2) |
| 1.4 | CNC(=N)NCCC[C@H](NC(=O)[C@H](CC(C)(C)C)NC(=O)CNC(=O)[C@H](CC1CCCCC1)NC(=O)[C@@H](NC(=O)[C@H](CC(N)=O)NC(=O)[C@@H]1C[C@@H](O)CN1C(=O)[C@@H](Cc1ccc(O)cc1)NC(C)=O)[C@@H](C)O)C(=O)N[C@@H](Cc1c[nH]c2ccccc12)C(N)=O [Compound No. 933, des(1)-Ac-[D-Tyr2,Hyp3,Thr5,Cha6,Leu(Me)8,Arg(Me)9,Trp10]MS10] (Ac-[dY][Hyp]NT[Cha]G[tBuAla][Arg(Me)]W-NH2) |
